Data on six molecules can be found in BindingDB's records for doi:10.7270/Q2W66J6B (Sanford-Burnham Center For Chemical Genomics, 2009).

pIC50: −log10 of the molar value.

The assay concerns the target T1, Dual specificity protein phosphatase 6 (Rattus norvegicus, UniProt Q64346).
T1 sequence (Q64346 whole entry): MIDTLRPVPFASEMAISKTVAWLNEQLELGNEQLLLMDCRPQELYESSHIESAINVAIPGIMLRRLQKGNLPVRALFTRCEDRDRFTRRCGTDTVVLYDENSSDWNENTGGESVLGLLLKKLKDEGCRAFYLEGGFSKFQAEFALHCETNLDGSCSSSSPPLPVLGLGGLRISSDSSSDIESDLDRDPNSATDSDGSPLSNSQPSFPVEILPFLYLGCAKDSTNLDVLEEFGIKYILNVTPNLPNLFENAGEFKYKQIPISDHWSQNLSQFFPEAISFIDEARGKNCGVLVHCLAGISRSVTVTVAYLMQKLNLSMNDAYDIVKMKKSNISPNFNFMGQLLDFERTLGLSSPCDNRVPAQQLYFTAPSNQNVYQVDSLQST
Kind of assay: MKP-3 phosphatase inhibitors, primary screen, biochemical, rat enzyme, in vitro (AID 425).
As usually defined, the pIC50 is the negative decadic logarithm of the IC50, by convention in mol/L. With `Cc1ccc(NC(=O)CN2C(=O)C(=NNC(=O)c3cc([N+](=O)[O-])ccc3O)c3ccccc32)cc1`, the pIC50 was 4.51.

The molecule `CCOc1cc(CN=Nc2nc(O)c(CC(=O)O)s2)ccc1OCc1ccc(Cl)cc1Cl` [2-[2-[(N''E)-N''-[4-(2,4-dichlorobenzyl)oxy-3-ethoxy-benzylidene]hydrazino]-4-keto-2-thiazolin-5-yl]acetic acid] showed a pIC50 of 4.59. In the case of `O=NCc1cccn1-c1cccc(C(=O)O)c1` [3-[2-(hydroximinomethyl)pyrrol-1-yl]benzoic acid] it was 5.00; in that of `CCN(CC)CCCN1C(=O)C(=O)C(C(=O)c2ccccc2)C1c1ccccn1` (stereo unspecified) [(4E)-1-[3-(diethylamino)propyl]-4-[hydroxy(phenyl)methylidene]-5-(2-pyridinyl)pyrrolidine-2,3-dione], 4.00. The figure for `Cc1cc(=O)oc2cc(OCC(=O)N/N=C/C3C=C([N+](=O)[O-])C=CC3=O)ccc12` (stereo unspecified) [MLS000588734] is 4.62. The figure for `COC1=CC=CC(/C=N/NC(=O)c2cc3cc([N+](=O)[O-])ccc3s2)C1=O` (stereo unspecified) [SMR000237814] is 3.94.
